From patent US20230045616A1, “CANCER TREATMENT METHOD AND MEDICINE” (Nonprofit Organization North East Japan Study Group, priority 2019, published 2023)
“Also recorded” adds a separate entry of the source.

Test system: lung cancer
Assay: CT / X-ray images of cancer tissue in treated lung cancer patients (case reports)
Format: in vivo, human

Substance: nivolumab
- cancer tissue in CT images after the treatment (Example 3 patient, nivolumab after administration of Extract Z, FIG. 5): almost eliminated
- primary foci and lymph node metastasis (Example 23 patient, nivolumab alone 240 mg every 2 weeks from September, 2017, progression observed on Nov. 6, 2020): primary foci were almost eliminated and metastasis to the lymph nodes was eliminated
- swelling in the cervical lymph node (CT images) (nivolumab 240 mg every 2 weeks continued after radiation of 30 Gy/10 fr to the cervical lymph node, stage IVb lung cancer patient): suppressed (April and October, 2019) and partially remitted; also recorded: suppressed (May, 2019) and partially remitted
- swelling in the cervical lymph node to which cancer had been metastasized (CT images) (nivolumab alone, 240 mg per dose i.v. drip at an interval of 2 weeks, stage IVb lung cancer patient without driver gene mutation): progressed
